Patent US4438131A, “.OMEGA.-Cyano-1, .OMEGA.-diphenyl-azaalkane derivatives, their preparation and drugs containing them” (BASF Aktiengesellschaft, priority 1981, dated 1984)
Like-named read-outs stand apart in the source and are kept apart here.

Legend:
[1] = tested on: systolic blood pressure; experiment: Antihypertensive action, spontaneously hypertensive rats (SHR), oral; type: in vivo; conditions: for Lowering of systolic blood pressure, R.A. (relative activity; verapamil = 1.00) / ED20: SHR, peroral; for ED20: Rattus norvegicus, po, read-out: Lowering of systolic blood pressure, ED 20%; for Antihypertensive action (in words): after 24 hours, SH rats, verapamil at 100 mg/kg
Procedure: The substances were administered orally to male spontaneously hypertensive rats (SHR) of the Okamoto strain (weight: 300-400 g). The systolic blood pressure was determined non-operatively on the tails of the rats by piezo-crystal measurements before and 2, 6, 24 and, where relevant, 30 hours after administration.
The dose which reduced the systolic pressure by 20%, taking into consideration the values from untreated control animals, was taken as the ED 20%.

[2] = tested on: creatine phosphate concentration in the myocardium; experiment: Cardio-protective action against hypoxic cardiac metabolism disorders, oral, rats; type: in vivo, rat (Wistar); conditions: compounds 2-40 mg/kg, verapamil up to 40 mg/kg
Procedure: A drastic depletion of energy-rich phosphates in the mycocardium of anesthetized rats (Wistar, weight: 250-350 g, anesthetic: thiobutabarbital 100 mg/kg i.p.) was produced by standardized respiration with an oxygen-deficient mixture (2% of O2).
The test substances were administered to the still conscious animals 6 hours before the oxygen-deficient respiration. The percentage difference between the creatine phosphate concentration in the myocardium of animals pretreated with the test substance and that of the untreated hypoxic control animals was determined.

[3] = tested on: collagen-induced platelet aggregation; experiment: Platelet aggregation-inhibiting action after oral administration to rats; conditions: Rattus norvegicus, 1 h, read-out: Inhibition of aggregation, ED 33%
Procedure: The substances were administered orally to male Sprague-Dawley rats (200-250 g). 1 hour after administration, samples of blood were taken under ether anesthetic, and platelet-rich plasma was obtained by centrifugation (300 g, 10 minutes at 4° C.). The platelet aggregation was measured photometrically, with the addition of MgCl2 and (end concentration of 10 mmoles/l) and Collagen Stago (end concentration of 0.02 mg/ml), in a Mark 3 Born Aggregometer. The maximum change in extinction/second was used as a measure of the aggregation.

[4] = tested on: passive cutaneous anaphylaxis (PCA); experiment: Antiallergic action, passive cutaneous anaphylaxis (PCA) in rats, oral; type: in vivo, rat (male); conditions: for % inhibition (diameter of colored spot, PCA): 21.5 mg/kg oral
Procedure: The model of passive cutaneous anaphylaxis (PCA) was used for this test.
Anesthetized male rats (100-140 g) were sensitized by intradermal injection (shaven dorsal skin) of 0.1 ml of an ovalbumin antiserum. After a sensitizing period of about 48 hours, they were treated with the test substances (oral administration). After various latency periods (2, 6, 12 and 24 hours), the experimental animals were injected intravenously with an antigen/Evans blue solution. The animals were sacrificed in each case 30 minutes after the injection, and the dorsal skin was removed and the circular blue stain on the inner surface measured.
The antiallergic action was quoted as the relative inhibition (Δ%) of the diameter of the colored spot.

Compound	Lowering of systolic blood pressure, R.A. (relative activity; verapamil = 1.00) ([1]; 2 hrs)	Lowering of systolic blood pressure, R.A. (relative activity; verapamil = 1.00) ([1]; 6 hrs)	ED20 ([1]; 2 hrs)	ED20 ([1]; 6 hrs)	ED20 ([1]; 24 hrs)	ED33 [3]	other results
CCCCCCCCCCCCC(C#N)(CCCN(C)CCc1cccc(OC)c1)c1cc(OC)c(OC)c(OC)c1 (stereo not drawn) [Example 20, 1-(3-Methoxyphenyl)-3-methylaza-7-cyano-7-(3,4,5-trimethoxyphenyl)-nonadecane]	6.27	3.12	3.7 mg/kg	6.6 mg/kg	12.5 mg/kg	–	Antihypertensive action (in words) [1]: still have an antihypertensive action
1-(3,5-Diethoxyphenyl)-3-methylaza-7-cyano-7-(3-ethoxyphenyl)-docosane [Example 68]	–	–	–	–	–	–	Cardio-protective action (in words) [2]: particularly powerful action
CCCCCCCCCCCCC(C#N)(CCCN(C)CCc1cccc(OC)c1)c1cccc(OC)c1 (stereo not drawn) [Example 3, 1,7-bis-(3-Methoxyphenyl)-3-methylaza-7-cyano-nonadecane]	0.93	1.46	24.9 mg/kg	14.1 mg/kg	18.7 mg/kg	9.6 mg/kg	Cardio-protective action (in words) [2]: particularly powerful action; Antihypertensive action (in words) [1]: still have an antihypertensive action; % inhibition (diameter of colored spot, PCA) ([4]; latency period 2 hours): 15%; % inhibition (diameter of colored spot, PCA) ([4]; latency period 6 hours): 40%; % inhibition (diameter of colored spot, PCA) ([4]; latency period 12 hours): 83%; % inhibition (diameter of colored spot, PCA) ([4]; latency period 24 hours): 68%; Antiallergic action (in words) ([4]; after oral administration): long-lasting antiallergic action; Antiallergic action compared with verapamil (in words) ([4]; latency periods of 12 and 24 hours, oral): substantially more powerful action
CCCCCCCCCCCCCCCC(C#N)(CCCN(C)CCc1cccc(OC)c1)c1cccc(OC)c1 (stereo not drawn) [Example 6, 1,7-bis-(3-Methoxyphenyl)-3-methylaza-7-cyano-docosane]	–	–	–	–	–	49 mg/kg	–
CCCCCCCCCCCCC(C#N)(CCCN(C)CCc1ccccc1)c1ccccc1 (stereo not drawn) [Example 5, 1,7-Diphenyl-3-methylaza-7-cyano-nonadecane]	–	–	–	–	–	–	Cardio-protective action (in words) [2]: particularly powerful action
COc1ccc(CCN(C)CCCC(C#N)(c2ccc(OC)c(OC)c2)C(C)C)cc1OC (stereo not drawn) [Verapamil, 1,7-bis-(3,4-dimethoxyphenyl)-3-methylaza-7-cyano-8-methyl-nonane, reference compound]	–	–	23.2 mg/kg	20.6 mg/kg	–	–	Antihypertensive action (in words) [1]: ineffective; % inhibition (diameter of colored spot, PCA) ([4]; latency period 2 hours): 53%; % inhibition (diameter of colored spot, PCA) ([4]; latency period 6 hours): 50%; % inhibition (diameter of colored spot, PCA) ([4]; latency period 12 hours): 33%; % inhibition (diameter of colored spot, PCA) ([4]; latency period 24 hours): 31%
CCCCCCCCCCCCC(C#N)(CCCN(C)CCc1cccc(OC)c1)c1ccc(OC)c(OC)c1 (stereo not drawn) [Example 19, 1-(3-Methoxyphenyl)-3-methylaza-7-cyano-7-(3,4-dimethoxyphenyl)-nonadecane]	3.09	1.04	7.5 mg/kg	19.8 mg/kg	46.4 mg/kg	–	–
CCCCCCCCCCCC(C#N)(CCCN(C)CCc1cccc(OC)c1)c1cccc(OC)c1 (stereo not drawn) [Example 25, 1,7-bis-(3-Methoxyphenyl)-3-methylaza-7-cyano-octadecane]	3.41	2.02	6.8 mg/kg	10.2 mg/kg	46.4 mg/kg	–	–
CCCCCCCCCCCCC(C#N)(CCCN(C)CCc1ccc(SCC)cc1)c1cccc(OC)c1 (stereo not drawn) [Example 42, 1-(4-Ethylmercaptophenyl)-3-methylaza-7-cyano-7-(3-methoxyphenyl)-nonadecane]	2.25	–	0.3 mg/kg	–	58.3 mg/kg	–	–
CCCCCCCCCCCCC(C#N)(CCCN(C)CCc1cc(OC)cc(OC)c1)c1cccc(OCC)c1 (stereo not drawn) [Example 70, 1-(3,5-Dimethoxyphenyl)-3-methylaza-7-cyano-7-(3-ethoxyphenyl)-nonadecane]	–	–	–	–	–	119 mg/kg	–
CCCCCCCCCCCCC(C#N)(CCCNCCc1cccc(OC)c1)c1cccc(OC)c1 (stereo not drawn) [Example 75, 1,7-bis-(3-Methoxyphenyl)-3-aza-7-cyano-nonadecane]	–	–	–	–	–	90.2 mg/kg	–
